Assay type in all cases: cell-based, BALB/c mouse
The test system of assay [1] is iLRP-specific T cell clone H3 (Th1). Briefly: BUdR incorporation ELISA proliferation assay, Th1 clone H3. The settings on record: for BudR Incorporation (A450), T cell clone H3 (Th1): Table 8, overlapping 12-mers of iLRP 136-166, 100 U/ml IL-2. The procedure:
(§1) The epitopes recognized by 15 iLRP-reactive T cell clones derived from either naive BALB/c mice, BALB/c mice bearing MCA1315 fibrosarcoma tumors, or from BALB/c mice immunized with either 1 or 10 μg of recombinant murine iLRP were determined by testing the proliferation of those clones to overlapping peptides spanning the region of the iLRP molecule recognized by each clone in the presence of IL-2, as a growth factor for T cells and irradiated, T cell-depleted, syngeneic spleen cells as antigen-presenting cells. Proliferation was measured through ELISA determination of 5-bromodeoxyuridine incorporation during culture.
(§2) More specifically, the epitope-specificity of the iLRP-specific Th1, Tc, and Ts clones was determined using a modification of the 5′-bromodeoxyuridine (BudR) incorporation ELISA technique described in Rohrer, J. W., A. L. Barsoum, D. L. Dyess, J. A. Tucker, and J. H. Coggin, Jr. 1999. Human breast carcinoma patients develop clonable oncofetal antigen-specific effector and regulatory T lymphocytes. J. Immunol. 162:6880, using the Biotrak BUdR incorporation assay (Amersham, Arlington Heights, Ill.). Briefly, at the time of restimulation of the clones, a portion of the cloned T cells were assayed for proliferation to antigen-presenting cells (APC) and various iLRP peptides. The assay was performed with 10,000 viable cloned T cells/well plus […] irradiated syngeneic spleen cells (APC) plus 100 ng/well of intact iLRP/OFA protein or the various truncated iLRP/OFA proteins or the various iLRP/OFA peptides in Iscove's modified Dulbecco's medium (IMDM) containing 2 mM L-glutamine, 100 U/ml of penicillin G, 100 μg of streptomycin sulfate, and 10% fetal calf serum. The cells were cultured for a total of 48 hours. After 24 hours of culture 5′-bromodeoxyuridine was added to a final concentration of 10 μM/well. The cells were cultured for another 24 hours. At the end of the last 24 hours of incubation, the plates were centrifuged at 300×g for 10 min, and the labelling medium removed. The cells were then dried at 60° C. for 1 hour. The cells were fixed with an ethanol fixative provided in the Biotrak kit for 30 min at room temperature, fixative was removed, and the wells were coated with blocking buffer (1% protein in 50 mM Tris-HCl, 150 mM NaCl, pH 7.4) and incubated for 30 min at room temperature. The blocking buffer was removed, 100 μl of 1:100 diluted peroxidase-labelled anti-BUdR antibody was added to each well and the plates were incubated for 90 min at room temperature. The antibody solution was removed, and the wells washed three times with 300 μl/well of wash buffer. 200 μl of 3,3′, 5,5′-tetramethylbenzidine in […] DMSO was added to each well and the plate was covered and incubated at room temperature while oscillating gently for 5-30 min. When the required color density was reached, the reaction was stopped by adding 25 μl of 1M sulfuric acid to each well and the plate read on a microELISA reader at 450 nm.
(§3) Each time the assay was done, clones were stimulated by APC and intact iLRP/OFA as a positive control. Cloned T cells were also cultured in the presence of only APC in IMDM or in the presence of APC and an iLRP/OFA peptide or truncated iLRP/OFA known not to stimulate the clones being tested. These served as negative controls. In wells where BUdR was incorporated (the iLRP/OFA stimulates proliferation of the T cells), the A450 was at least 10-fold and often approximately 50-fold higher than the negative controls. Because the Ts cells always presented with apparently low affinity T cell antigen receptors, their BUdR incorporation gave A450 values about 10 times higher than the negative controls (e.g., about 0.2 vs. 0.02), but about 5 times lower than the Th1 or Tc clones (e.g., usually about 0.9). […]

Assay [2] concerns iLRP-specific T cell clone H2 (Ts). Briefly: BUdR incorporation ELISA proliferation assay, Ts clone H2. The settings on record: for BudR Incorporation (A450), T cell clone H2 (Ts): Table 8, overlapping 12-mers of iLRP 136-166, 100 U/ml IL-2. The procedure:
as §1, §2, §3

For assay [3], the system named is iLRP-specific T cell clone H4 (Ts). The assay can be described thus: BUdR incorporation ELISA proliferation assay, Ts clone H4. The settings on record: for BudR Incorporation (A450), T cell clone H4 (Ts): Table 8, overlapping 12-mers of iLRP 136-166, 100 U/ml IL-2. The procedure: as §1, §2, §3
In assay [4] the test system is iLRP-specific T cell clone L4 (Tc). The assay can be described thus: BUdR incorporation ELISA proliferation assay, Tc clone L4. The settings on record: Table 8; overlapping 12-mers of iLRP 136-166; 100 U/ml IL-2. The protocol: as §1, §2, §3
In assay [5] the test system is iLRP-specific T cell clone L5 (Tc). The assay can be described thus: BUdR incorporation ELISA proliferation assay, Tc clone L5. The conditions noted are these: for BudR Incorporation (A450), T cell clone L5 (Tc): Table 8, overlapping 12-mers of iLRP 136-166, 100 U/ml IL-2. The procedure: as §1, §2, §3
Assay [6] has as its system iLRP-specific Th1, Tc, and Ts clones. The assay can be described thus: BUdR incorporation proliferation assay, comparison across iLRP-specific T cell clone types. The settings on record: Table 14; type of T cell clone reactive with the 12-mer. The procedure:
as §1, §2
(§4) Each time the assay was done, clones were stimulated by APC and intact iLRP/OFA as a positive control. Cloned T cells were also cultured in the presence of only APC in IMDM or in the presence of APC and an iLRP/OFA peptide or truncated iLRP/OFA known not to stimulate the clones being tested. These served as negative controls. In wells where BUdR was incorporated (the iLRP/OFA stimulates proliferation of the T cells), the A450 was at least 10-fold and often approximately 50-fold higher than the negative controls. Because the Ts cells always presented with apparently low affinity T cell antigen receptors, their BUdR incorporation gave A450 values about 10 times higher than the negative controls (e.g., about 0.2 vs. 0.02), but about 5 times lower than the Th1 or Tc clones (e.g., usually about 0.9).
Determination of the portion of the truncated iLRP/OFA protein or peptide reacted to by a given clone was done by analysis of the proliferation pattern to the various truncated proteins or peptides. […]

The test system of assay [7] is CD8 iLRP-specific T cell clone L6 (Tc). The assay can be described thus: BUdR incorporation ELISA proliferation assay, Tc clone L6. The conditions noted are these: Table 5. The protocol: as §1
More specifically, the epitope-specificity of the iLRP-specific Th1, Tc, and Ts clones was determined using a modification of the 5′-bromodeoxyuridine (BudR) incorporation ELISA technique described in Rohrer, J. W., A. L. Barsoum, D. L. Dyess, J. A. Tucker, and J. H. Coggin, Jr. 1999. Human breast carcinoma patients develop clonable oncofetal antigen-specific effector and regulatory T lymphocytes. J. Immunol. 162:6880, using the Biotrak BUdR incorporation assay (Amersham, Arlington Heights, Ill.). Briefly, at the time of restimulation of the clones, a portion of the cloned T cells were assayed for proliferation to antigen-presenting cells (APC) and various iLRP peptides. The assay was performed with 10,000 viable cloned T cells/well plus […] irradiated syngeneic spleen cells (APC) plus 100 ng/well of intact iLRP/OFA protein or the various truncated iLRP/OFA proteins or the various iLRP/OFA peptides in Iscove's modified Dulbecco's medium (IMDM) containing 2 mM L-glutamine, 100 U/ml of penicillin G, 100 μg of streptomycin sulfate, and 10% fetal calf serum. The cells were cultured for a total of 48 hours. After 24 hours of culture 5′-bromodeoxyuridine was added to a final concentration of 10 μM/well. The cells were cultured for another 24 hours. […] When the required color density was reached, the reaction was stopped by adding 25 μl of 1M sulfuric acid to each well and the plate read on a microELISA reader at 450 nm. […]

Assay [8] has as its system iLRP-specific T cell clone L1 (CD8 Ts). The assay can be described thus: BUdR incorporation ELISA proliferation assay, Ts clone L1. The settings on record: Table 3; for BUdR Incorporation (A450) of iLRP-specific T cell clone L1 cells, Expt. 1 / BUdR Incorporation (A450) of iLRP-specific T cell clone L1 cells, Expt. 2: 100 ng/well stimulant with irradiated syngeneic spleen cells (APC), 48 h culture. The procedure:
as §1, §2, §4
Overlapping 12mer peptides of the first 25 amino acids of murine iLRP were produced. Thus, peptides 1-4 corresponded to amino acid residues 1-12, 5-16, 9-20 and 17-28 of murine iLRP. […]

As to CNTDSPLRYVDI [Peptide 31-4], the “BudR Incorporation (A450), T cell clone H3 (Th1)” value in assay [1] is on record as “.81 A450”. The “Response of Th1 clone H3 (in words)” value in assay [1] (text on Table 8) was “slightly lower response”. In assay [2], the “BudR Incorporation (A450), T cell clone H2 (Ts)” value is “.016 A450”. Further, the “BudR Incorporation (A450), T cell clone H4 (Ts)” value in assay [3] is on record as “.016 A450”. Further, the “BudR Incorporation (A450), T cell clone L4 (Tc)” value in assay [4] is recorded as “.023 A450”. Moreover, in assay [5], the “BudR Incorporation (A450), T cell clone L5 (Tc)” value is “.89 A450”. The “Proliferative response of Tc clone L5 (in words)” value in assay [5] (text on Table 8) is recorded as “equal proliferative response”. For the same substance, the “Reactive T cell clones” value in assay [6] was “Tc & TH1”.

For EASYVNLPTIAL [Peptide 31-1], the “BudR Incorporation (A450), T cell clone H3 (Th1)” value in assay [1] is on record as “.016 A450”. For the same substance, in assay [2], the “BudR Incorporation (A450), T cell clone H2 (Ts)” value is “.23 A450”. In assay [2] (text on Table 8), the “Proliferation of Ts clone H2 (in words)” value is “proliferated equally”. The “BudR Incorporation (A450), T cell clone H4 (Ts)” value in assay [3] was “.22 A450”. The “Proliferation of Ts clone H4 (in words)” value in assay [3] (text on Table 8) is “proliferated equally”. The “BudR Incorporation (A450), T cell clone L4 (Tc)” value in assay [4] is “.015 A450”. The “BudR Incorporation (A450), T cell clone L5 (Tc)” value in assay [5] is listed as “.017 A450”. Further, the “Reactive T cell clones” value in assay [6] was “Ts”.

On to ISSRNTGQRAVL [P14 (aa 77-88)], for which the “Proliferation of clone L6 (in words)” value in assay [7] is recorded as “proliferated equally well”.

As to KLLAAGTHLGGT [Peptide 4], in assay [8], the “Proliferation of clone L1 (in words)” value is “proliferates to a peptide contained almost entirely in peptide 4”; the “BUdR Incorporation (A450) of iLRP-specific T cell clone L1 cells, Expt. 1” value (from here on “BUdR Incorporation (A450) … Expt. 1”) was “.28 A450”; the “BUdR Incorporation (A450) of iLRP-specific T cell clone L1 cells, Expt. 2” value (“BUdR Incorporation (A450) … Expt. 2” below) is “.27 A450”.

For the substance LDVLQMKEEDVL [Peptide 2], in assay [8], the “BUdR Incorporation (A450) … Expt. 1” value is reported as “.017 A450” and the “BUdR Incorporation (A450) … Expt. 2” value is given as “.019 A450”.

Consider MSGALDVLQMKE [Peptide 1], for which, in assay [8], the “BUdR Incorporation (A450) … Expt. 1” value is “.018 A450” and the “BUdR Incorporation (A450) … Expt. 2” value was “.020 A450”.

Regarding NTGQRAVLKFAA [P15 (aa 81-92)], in assay [7], the “Proliferation of clone L6 (in words)” value was “proliferated equally well”.

As for “P10 (aa 61-72): iLRP 12-mer peptide, amino acids 61-72 (AARAIVAIENPA)”, the “BUdR incorporation, CD8 iLRP-specific T cell clone L6 (Tc)” value in assay [7] (100 ng/well stimulant with APC, two values given) was “.017, .017 A450”.

These data come from patent publication US8709405B2, “Cancer vaccines containing epitopes of oncofetal antigen” (South Alabama Medical Science Foundation, priority 2002, dated 2014).
